Data from patent publication US11535632B2, “Solid forms of an S1P-receptor modulator” (ESCAPE Bio, Inc., priority 2019, dated 2022).

Tests used:
Type in all cases: physicochemical
[1] = Solubility and metastable zone width by Crystal 16; settings: for metastable zone width: 0.5° C./min
Experimental: A Crystal 16 crystallization system (Technobis, NL) was used to determine the solubility and metastable zone of the material as a function of temperature. Slurries of the API, in different overall concentrations, were prepared by adding a known amount of solid to a known amount of chilled solvent (between 0.5 and 1.5 ml) and stirred at 350 rpm using a magnetic bar. The saturation temperature was measured through cycles of heating and cooling from 20 to 90° C. at 0.5° C./min.
Upon increasing the temperature, the solid completely dissolved and the suspension became a clear solution such that the light transmission reached its maximum value. This temperature was assigned as the clear point, which was assumed to coincide with the saturation temperature. Then, by cooling the solution at a rate of 0.5° C./min, the temperature at which particles first formed was detected by a decrease in the light transmission. This was assigned as the cloud point. The points were fitted by a Van′t Hoff equation and the difference between the cloud and the clear points defined the metastable zone width (MSZW) of the system. The instrument control software was Crystallization Systems and the data were analyzed using Crystal Clear and Microsoft Excel.
The solubility of compound 1 (various masses) in DMAC and DMSO (1 ml) was analyzed on the Crystal 16 (between 25-90° C. for DMSO and 0-90° C. for DMAC). A heating/cooling rate of 0.5° C./min and a stirring rate of 300 rpm was used for all samples. The resulting turbidity/temperature plots were analyzed to obtain solubility curves and determine the metastable zone width. Any precipitated solids were isolated by filtration and analyzed by XRPD.

Water activity study = settings: 4 days, start Form A + Form B
Experimental: About 15 mg of Form A and 15 mg of Form B were added to the saturated solutions of different water activities and equilibrated at 25° C. and 50° C. for 4 days, respectively. The resulting suspensions were filtered, and the solid parts (wet cake) were investigated by XRPD to determine the polymorph.
According to XRPD results, Form B was obtained in methanol/water with water activity (a.w.) ranging from 0.1 to 0.9 at 25° C., as shown in FIGS. 20A-20B. At 50° C., Form B was obtained in methanol/water with a.w. ≥0.2, whereas a mixture of Form A and Form B was obtained in a.w. […] The water activity of the binary solvent system was calculated based on UNIFAC method (UNIQUAC Functional-group Activity Coefficients).

[2] = Competitive slurries of Form B and C in process relevant solvents; settings: 72 hours, start Form B + C
Experimental: Determination of the relative stabilities of Form B and Form C was undertaken to identify which material was more thermodynamically stable in process relevant solvents. As a suspected solvate was isolated from experiments where DMAC was used as a solvent, only DMSO and acetic acid were determined to be appropriate process solvents. Combinations of these solvents with relevant antisolvents were therefore selected for the competitive slurry experiments.
Compound 1 (from Example 2) was dispensed into HPLC vials. To these, 1 ml of selected solvents was subsequently added to give a suspension. Materials were slurried for 72 hours at 90° C., 50° C. or 25° C. with 500 rpm stirring. Material was subsequently isolated by centrifugation and analyzed by XRPD.

metastable zone width ([1]; DMAC, 0-90° C.): ca. 30 °C | metastable zone width ([1]; DMSO, 25-90° C.): ca. 30 °C | solubility ([1]; neat acetic acid): very high solubility | XRPD of solid after equilibration (Water activity study; Methanol/water (20:80, v/v) a.w. = 0.9, 25° C.): Form B | XRPD of solid after equilibration (Water activity study; Methanol/water (20:80, v/v) a.w. = 0.9, 50° C.): Form B | XRPD of solid after equilibration (Water activity study; Methanol/water (57:43, v/v) a.w. = 0.7, 25° C.): Form B | XRPD of solid after equilibration (Water activity study; Methanol/water (57:43, v/v) a.w. = 0.7, 50° C.): Form B | XRPD of solid after equilibration (Water activity study; Methanol/water (69:31, v/v) a.w. = 0.6, 25° C.): Form B | XRPD of solid after equilibration (Water activity study; Methanol/water (69:31, v/v) a.w. = 0.6, 50° C.): Form B | XRPD of solid after equilibration (Water activity study; Methanol/water (77:23, v/v) a.w. = 0.5, 25° C.): Form B | XRPD of solid after equilibration (Water activity study; Methanol/water (77:23, v/v) a.w. = 0.5, 50° C.): Form B | XRPD of solid after equilibration (Water activity study; Methanol/water (84:16, v/v) a.w. = 0.4, 25° C.): Form B | XRPD of solid after equilibration (Water activity study; Methanol/water (84:16, v/v) a.w. = 0.4, 50° C.): Form B | XRPD of solid after equilibration (Water activity study; Methanol/water (89:11, v/v) a.w. = 0.3, 25° C.): Form B | XRPD of solid after equilibration (Water activity study; Methanol/water (89:11, v/v) a.w. = 0.3, 50° C.): Form B | XRPD of solid after equilibration (Water activity study; Methanol/water (93:7, v/v) a.w. = 0.2, 25° C.): Form B | XRPD of solid after equilibration (Water activity study; Methanol/water (93:7, v/v) a.w. = 0.2, 50° C.): Form B | XRPD of solid after equilibration (Water activity study; Methanol/water (97:3, v/v) a.w. = 0.1, 25° C.): Form B | XRPD of solid after equilibration (Water activity study; Methanol/water (97:3, v/v) a.w. = 0.1, 50° C.): Form A + B | XRPD analysis after slurrying ([2]; Acetic acid:H2O (1:1), 25° C.): Form B | XRPD analysis after slurrying ([2]; Acetic acid:H2O (1:1), 50° C.): Form B | XRPD analysis after slurrying ([2]; Acetic acid:H2O (1:1), 90° C.): Form B | XRPD analysis after slurrying ([2]; Acetic acid:MeCN (1:3), 25° C.): Form B | XRPD analysis after slurrying ([2]; Acetic acid:MeCN (1:3), 50° C.): Form B | XRPD analysis after slurrying ([2]; Acetic acid:MeCN (1:3), 90° C.): Form B | XRPD analysis after slurrying ([2]; DMSO, 25° C.): Form B | XRPD analysis after slurrying ([2]; DMSO, 50° C.): Poorly crystalline | XRPD analysis after slurrying ([2]; DMSO, 90° C.): poorly crystalline Form A | XRPD analysis after slurrying ([2]; DMSO:H2O (1:1), 25° C.): Form B | XRPD analysis after slurrying ([2]; DMSO:H2O (1:1), 50° C.): Form B | XRPD analysis after slurrying ([2]; DMSO:H2O (1:1), 90° C.): Form B
Compound: O=C(O)[C@H]1C[C@@H](N2CCc3oc(-c4ccc(OCc5ccc(Cl)cc5)cc4)nc3C2)C1 [Compound 1, (1s,3s)-3-(2-(4-((4-chlorobenzyl)oxy)phenyl)-6,7-dihydrooxazolo[4,5-c]pyridin-5(4H)-yl)cyclobutane-1-carboxylic acid]
